# Data published in patent US20020002171A1, “Materials and methods for killing nematodes and nematode eggs” (priority 2000, published 2002).
# Test system: Caenorhabditis elegans
# Experiment: C. elegans L1 nematicidal dose response in 96-well plates, 5 day visual score (Example 2; same procedure for Example 7, Table 3)
# Format: in vivo
# Design: key to 5 Day Visual Score V1 / 5 Day Visual Score V2 / 5 Day Visual Score V3 / 5 Day Visual Score V4 / 5 Day Visual Score V6 / 5 Day Visual Score V5 / Initial HTS Run Visual Score / Follow-up HTS Run Visual Score: Dead: only stiff L1s (no movement); Dead (L4): worms are dead, but at a later larval stage; majority of worms are L1 (based on size) worms move when plate is tapped; majority of worms are L2 (based on size); majority of worms are L3 (based on size); majority of worms are L4 (based on size); AD: majority of worms are adult; #AD: 5 adult worms or less; B!: sterile (0-25 progeny); B: low broodsize (25-100 progeny); ˜B: moderate broodsize (100-250 progeny); <: reduced broodsize (250-500 progeny); OK: no effect (˜1000+ progeny)
# Conditions: for 5 Day Visual Score V5: dilution V5, day 5; for 5 Day Visual Score V3: dilution V3, day 5; for 5 Day Visual Score V6: dilution V6, day 5; for 5 Day Visual Score V4: dilution V4, day 5
# Method: Caenorhabditis elegans adults were grown on Nematode Growth Medium (NGM) until they produced eggs, then the adults were removed.
# The eggs were allowed to hatch, and the L1 larvae collected. See The Nematode Caenorhabditis elegans (1988) Cold Spring Harbor Laboratory Press. Using a Matrix Programmable Pipette, the L1s were distributed into 96-well tissue culture plates, 20 L1 in 50 μl NGM per well. Antibiotic/Antimyoticwas added to each well, and 1% by weight E. coli strain HB101. The subject anthelmintic compounds were stored at 5 mM in 100% DMSO. 0.7 μl of compounds 1-31 were added to the left-most column of wells to yield a final concentration of 70 μM in 1.4% DMSO, with 1.4% DMSO only as the control. The compounds were then subjected to 5 more 3-fold dilutions from left to right to yield 6 column concentrations of 70 μM, 23.3 μM, 7.8 μM, 2.6 μM, 0.9 μM, and 0.3 μM. Plates were stored in air-tight Rubbermaid plastic boxes at 20° C. The nematodes had cleared all control wells by day 4, and nematode viability was scored by visual examination under a 100× dissecting microsope on day 5. A visual viability scoring system was used as follows:
# Column V1 has a compound concentration of 70 μM with sequential 3-fold dilutions reported in columns V2, V3, V4, V5, and V6, respectively, such that the V6 concentration was 0.3 μM.
# The nematicidal activity of anthelmintic Compositions 48-168 were determined in accordance with the procedure outlined in Example 2.
# [1] = dose response, dilution V1, day 5
# [2] = dose response, dilution V2, day 5
# [3] = 23.3 μM, C. elegans L1, scored day 5
# [4] = 70 μM, C. elegans L1, scored day 5
SMILES,Follow-up HTS Run % Run,Follow-up HTS Run mOD,Initial HTS Run % Run,Initial HTS Run mOD,5 Day Visual Score V1 [1],5 Day Visual Score V2 [2],5 Day Visual Score V5 (dose response),Follow-up HTS Run Visual Score,Initial HTS Run Visual Score,5 Day Visual Score V3 (dose response),5 Day Visual Score V6 (dose response),5 Day Visual Score V2 [3],5 Day Visual Score V1 [4],5 Day Visual Score V4 (dose response)
CN(Cc1ccccc1)c1nc(NCc2ccccc2)ns1 [AKC 328],101%,163 mOD,98%,108 mOD,Dead,L1,˜B (moderate broodsize (100-250 progeny)),,,,,,,
CN(CCc1ccccc1)c1nc(NC2CCCCCCCCCCC2)ns1 [AKC 335],82%,132 mOD,104%,114 mOD,Dead,Dead,,Dead,Dead,Dead,OK (no effect (˜1000+ progeny)),,,
CCC1CCCCN1c1cc(Oc2ccc3oc4ccccc4c3c2)ncn1 (stereo not shown) [AKC 340],,,,,,,,,,,,L1,L1,
O=C(NCCc1ccccc1F)C1C(c2ccc(F)cc2)=NOC1c1ccc(-c2ccccc2)cc1 (stereo not shown) [AKC 2153],,,,,,,,,,,,L1,L1,
Cc1cccc(C)c1N1CCN(c2nsc(N3CCC(O)CC3)n2)CC1 [compound 218],78%,125 mOD,91%,100 mOD,Dead,Dead,OK (no effect (˜1000+ progeny)),Dead,1AD/B!,,OK (no effect (˜1000+ progeny)),,,OK (no effect (˜1000+ progeny))
Cc1cccc(C)c1N1CCN(c2nsc(N3CC(C)CC(C)C3)n2)CC1 (stereo not shown) [compound 219],74%,119 mOD,90%,99 mOD,Dead,,OK (no effect (˜1000+ progeny)),Dead/1AD/B!,4AD/B,,OK (no effect (˜1000+ progeny)),,,OK (no effect (˜1000+ progeny))
CCCCN(CCCCO)c1nc(N2CCN(c3c(C)cccc3C)CC2)ns1 [compound 220],75%,121 mOD,95%,105 mOD,Dead,,OK (no effect (˜1000+ progeny)),Dead,1AD/B!,˜B (moderate broodsize (100-250 progeny)),OK (no effect (˜1000+ progeny)),,,OK (no effect (˜1000+ progeny))
COCCN(CCOC)c1nc(N2CCN(c3c(C)cccc3C)CC2)ns1 [compound 221],84%,136 mOD,97%,107 mOD,#AD/˜B,,OK (no effect (˜1000+ progeny)),5AD/B,L4/AD/B,OK (no effect (˜1000+ progeny)),OK (no effect (˜1000+ progeny)),,,OK (no effect (˜1000+ progeny))
CCCN(CC1CC1)c1nc(N2CCN(c3ncccn3)CC2)ns1 [compound 222],126%,203 mOD,106%,117 mOD,#AD/˜B,OK (no effect (˜1000+ progeny)),OK (no effect (˜1000+ progeny)),,L2-Dead L3?,OK (no effect (˜1000+ progeny)),OK (no effect (˜1000+ progeny)),,,OK (no effect (˜1000+ progeny))
CCN(CC)C(=O)C1CCCN(c2nc(N3CCN(c4ccc(F)cc4)CC3)ns2)C1 (stereo not shown) [compound 223],118%,190 mOD,107%,118 mOD,Dead,B (low broodsize (25-100 progeny)),OK (no effect (˜1000+ progeny)),Dead,,< (reduced broodsize (250-500 progeny)),OK (no effect (˜1000+ progeny)),,,OK (no effect (˜1000+ progeny))
CCCCNc1nsc(N2CCN(c3cccc(C(F)(F)F)c3)CC2)n1 [compound 224],122%,196 mOD,143%,157 mOD,Dead,Dead,OK (no effect (˜1000+ progeny)),L1,,< (reduced broodsize (250-500 progeny)),OK (no effect (˜1000+ progeny)),,,OK (no effect (˜1000+ progeny))
Fc1ccc(CCNc2nsc(N3CCN(c4cccc(C(F)(F)F)c4)CC3)n2)cc1 [compound 225],107%,172 mOD,114%,125 mOD,,,OK (no effect (˜1000+ progeny)),,,˜B (moderate broodsize (100-250 progeny)),OK (no effect (˜1000+ progeny)),,,OK (no effect (˜1000+ progeny))
FC(F)(F)c1cccc(N2CCN(c3nc(NCC4CCCCC4)ns3)CC2)c1 [compound 226],104%,167 mOD,107%,118 mOD,L1,˜B (moderate broodsize (100-250 progeny)),OK (no effect (˜1000+ progeny)),,,OK (no effect (˜1000+ progeny)),OK (no effect (˜1000+ progeny)),,,OK (no effect (˜1000+ progeny))
Cc1cccc(C)c1N1CCN(c2nsc(N3CCN(c4c(C)cccc4C)CC3)n2)CC1 [compound 227],91%,146 mOD,107%,118 mOD,Dead,Dead,OK (no effect (˜1000+ progeny)),Dead,Dead,OK (no effect (˜1000+ progeny)),OK (no effect (˜1000+ progeny)),,,OK (no effect (˜1000+ progeny))
CCN(c1nc(N2CCN(c3c(C)cccc3C)CC2)ns1)C1CCCCC1 [compound 228],73%,118 mOD,107%,118 mOD,Dead,Dead,OK (no effect (˜1000+ progeny)),Dead/1L4/1AD,1AD/B!,OK (no effect (˜1000+ progeny)),OK (no effect (˜1000+ progeny)),,,OK (no effect (˜1000+ progeny))
CCCCCCCCCCCCCCCCCCN(C)c1nc(N2CCN(c3c(C)cccc3C)CC2)ns1 [compound 229],81%,130 mOD,125%,137 mOD,Dead,,OK (no effect (˜1000+ progeny)),5AD/B,Dead,#AD/˜B,OK (no effect (˜1000+ progeny)),,,OK (no effect (˜1000+ progeny))
CCCCC(CC)CN(CC(CC)CCCC)c1nc(N2CCN(c3c(C)cccc3C)CC2)ns1 (stereo not shown) [compound 230],63%,101 mOD,121%,133 mOD,Dead,,OK (no effect (˜1000+ progeny)),3AD/B,Dead/1AD/B!,,OK (no effect (˜1000+ progeny)),,,< (reduced broodsize (250-500 progeny))
